# According to US5385831A, “Method for producing a mammalian G protein coupled glutamate receptor” (priority 1993, dated 1995):
# How the values were obtained:
# GluG R = assay: Voltage-clamp assay of oocytes injected with RNA from rat cerebellum cDNA library pools; format: cell-based
# Description: Plasmid DNA prepared from each of the 10 pools of 100,000 clones, which in total represented one sublibrary of one million clones of the cerebellum cDNA library, was purified by cesium chloride gradient ultracentrifugation. The DNA was transcribed in vitro with T7 RNA polymerase (Pharmacia) in the presence of capped nucleotide (GpppG, Pharamcia). […] The transcription reaction tubes were set up by adding 12 μl of 5× transcription buffer (Stratagene Cloning Systems, La Jolla, Calif.), 3 μl each of 10 mM ATP, CTP, GTP, and UTP, 6 μl of 10 mM GpppG (Pharmacia), 6 μl of 1 mg/ml BSA, 3 μl of 200 mM DTT, 1.5 μl of 40 U/μl RNasin (ProMega Biotech, Madison, Wis.), 8.5 μl of water, 10 μl of cDNA containing 5 to 10 μg DNA, and 1 μl of 70 U/μl T7 RNA polymerase. […] Forty microliters of water was added to the radiolabeled reactions, and 1 μl was removed from each sample and counted to determine total counts. […] The samples were centrifuged to collect the RNA and the RNA pellets were counted to determine the counts incorporated into RNA. […]
# The RNA from each of the 10 sublibraries were injected into oocytes as described above and translation was allowed for four days. Expression of GluG R activity was assessed by voltage-clamp assay as described above. […]
# [1] = target: T1, GluG R encoded by clone 45-A (Rattus norvegicus, UniProt P23385); assay: Voltage-clamp assay of L-glutamic acid analogs at saturating concentrations in injected oocytes; format: cell-based; parameters: expressed in transfected cells; host or cells: Xenopus oocytes injected with in vitro transcribed (T7, pVEGT') clone 45-A RNA
# [2] = target: T1, GluG R encoded by clone 45-A; settings: read-out: Glutamate Analog Potencies (EC50); Xenopus oocytes injected with 45-A RNA; responses normalized to subsequent response to 100 μM L-glutamic acid
# [3] = system: glutamate G protein coupled receptor; assay: Voltage-clamp assay of antagonist inhibition of glutamic acid-evoked current in injected oocytes; format: cell-based, rat; settings: 1 mM DL-AP3
# Description: Voltage clamp assays were also carried out on injected oocytes to measure the inhibition by the putative glutamate G protein coupled receptor antagonist, 2-amino-3-phosphonopropionic acid (AP3).
# T1 sequence (P23385 19-1199): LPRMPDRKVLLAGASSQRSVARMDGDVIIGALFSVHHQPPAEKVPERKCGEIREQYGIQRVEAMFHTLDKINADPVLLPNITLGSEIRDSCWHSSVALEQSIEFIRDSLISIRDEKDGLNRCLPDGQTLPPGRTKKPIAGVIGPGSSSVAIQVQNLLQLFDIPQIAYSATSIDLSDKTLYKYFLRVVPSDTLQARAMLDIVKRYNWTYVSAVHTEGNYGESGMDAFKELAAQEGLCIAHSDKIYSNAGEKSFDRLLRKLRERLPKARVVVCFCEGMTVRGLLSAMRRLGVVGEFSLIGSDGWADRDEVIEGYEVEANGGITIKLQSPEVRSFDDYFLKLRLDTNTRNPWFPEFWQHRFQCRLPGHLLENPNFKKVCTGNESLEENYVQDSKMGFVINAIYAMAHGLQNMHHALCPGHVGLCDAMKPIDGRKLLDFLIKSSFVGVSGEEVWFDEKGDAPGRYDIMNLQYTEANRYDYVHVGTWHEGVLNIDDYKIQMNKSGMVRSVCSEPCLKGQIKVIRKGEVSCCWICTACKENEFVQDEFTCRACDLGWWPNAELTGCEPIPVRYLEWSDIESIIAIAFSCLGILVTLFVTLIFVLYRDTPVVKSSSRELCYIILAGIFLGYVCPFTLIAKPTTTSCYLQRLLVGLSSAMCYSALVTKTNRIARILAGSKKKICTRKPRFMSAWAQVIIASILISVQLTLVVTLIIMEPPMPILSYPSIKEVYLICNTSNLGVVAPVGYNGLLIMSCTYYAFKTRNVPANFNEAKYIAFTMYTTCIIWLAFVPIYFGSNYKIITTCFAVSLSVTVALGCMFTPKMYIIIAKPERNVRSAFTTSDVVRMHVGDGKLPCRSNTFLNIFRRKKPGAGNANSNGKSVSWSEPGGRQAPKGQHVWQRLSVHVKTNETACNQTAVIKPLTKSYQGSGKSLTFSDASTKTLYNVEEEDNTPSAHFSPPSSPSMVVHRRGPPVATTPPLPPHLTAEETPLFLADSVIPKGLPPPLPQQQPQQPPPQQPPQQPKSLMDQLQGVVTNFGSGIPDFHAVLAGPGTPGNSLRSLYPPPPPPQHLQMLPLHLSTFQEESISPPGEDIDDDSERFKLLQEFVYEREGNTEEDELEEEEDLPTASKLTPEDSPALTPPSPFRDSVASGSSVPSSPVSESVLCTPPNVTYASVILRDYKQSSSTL
compound,measurement,setting,value
"N[C@@H](Cn1oc(=O)[nH]c1=O)C(=O)O [Quisqualic acid, quisqualic acid]",peak current in response to quisqualate,"GluG R; oocyte injected with approximately 100 ng RNA from subfractionated pool of 14,000 colonies, estimated from a digital panel meter",approximately 1300 nA
same,signal with administration of quisqualate to the oocyte,"GluG R; sublibrary pool Z93-1.9 (100,000 clones)",produced a signal
"CN[C@H](CC(=O)O)C(=O)O [NMDA, N-methyl-D-aspartic acid]",response normalized to a subsequent response to 100 μM L-glutamate (effective/ineffective),[1]; 100 μM NMDA + 10 μM glycine,ineffective
"Cc1onc(O)c1CC(N)C(=O)O (stereo not drawn) [AMPA, α-amino-3-hydroxy-5-methyl-isoxazole-4-propionic acid]",response normalized to a subsequent response to 100 μM L-glutamate (effective/ineffective),[1]; 100 μM,ineffective
N[C@@H](CC(=O)O)C(=O)O [aspartic acid],response normalized to a subsequent response to 100 μM L-glutamate (effective/ineffective),[1]; 1 mM,ineffective
"N[C@H](C(=O)O)c1cc(=O)[nH]o1 [Ibotenic acid, ibotenic acid]",EC50,[2],32.4 µM
"NC(CP(=O)(O)O)C(=O)O (racemic) [DL-AP3, 2-amino-3-phosphonopropionic acid]","current evoked by 10 μM glutamic acid, reduced to % of the control",[3],59.3±7.3%
"NC(CCP(=O)(O)O)C(=O)O (stereo not drawn) [APB, 2-amino-4-phosphonobytyric acid]",response normalized to a subsequent response to 100 μM L-glutamate (effective/ineffective),[1]; 100 μM,ineffective
C=C(C)[C@H]1CN[C@H](C(=O)O)[C@H]1CC(=O)O [kainic acid],response normalized to a subsequent response to 100 μM L-glutamate (effective/ineffective),[1]; 1 mM,ineffective
